Results: patent publication US5880160A (priority 1995, dated 1999)

Experiments:
MCF7-ADR (resistant) = test: cells; type: cell-based, human; conditions: for MCF7-ADR/MCF7: ratio of IC50 in MCF7-ADR to IC50 in MCF-7; for IC50: MCF7-ADR resistant cell line, in vitro
MCF-7 (human breast) = test: cells; type: cell-based; conditions: MCF-7 human breast cell line, in vitro

Row | Structure (SMILES) | MCF7-ADR/MCF7 (MCF7-ADR (resistant)) | IC50 (MCF-7 (human breast); MCF7) [nM] | IC50 (MCF7-ADR (resistant); Homo sapiens, NCI/ADR-RES) [nM] | IC50 (MCF-7 (human breast)) [nM] | IC50 (MCF7-ADR (resistant)) [nM]
1 | COc1cc2c(c(OC)c1OC)-c1ccc(OC)c(=O)cc1[C@@H](NC(C)=O)CC2 [Colchicine, colchicine, reference compound] | 25.45 |  |  |  | 
2 | COc1cc2c(c(OC)c1OC)-c1ccc(SC)c(=O)cc1[C@@H](NC(=O)C(F)(F)C(F)(F)F)CC2 [Compound I, N-deacetyl-N-pentafluoro-propionyl-thiocolchicine] | 4.2 | 6.2 ± 0.4 | 26 ± 2.3 |  | 
3 | CCCCCC/C=C/C#CCCCCCCCC(=O)Oc1cc2c(c(OC)c1OC)-c1ccc(SC)c(=O)cc1C(NC(=O)C(F)(F)C(F)(F)F)CC2 (stereo not shown) [Compound II, N-deacetyl-N-pentafluoropropionyl-3-O-ximenoyl-thiocolchicine] | 2.2 |  |  | 5 ± 0.2 | 11 ± 1.9
4 | COc1c(OC2C=CCC2)cc2c(c1OC)-c1ccc(SC)c(=O)cc1[C@@H](NC(=O)C(F)(F)C(F)(F)F)CC2 (stereo partly shown) [Compound III, N-deacetyl-N-pentafluoropropionyl-3-O-demethyl-3-O-cyclopentenyl-thiocolchicine] | 1.7 | 4.1 ± 0.3 | 7 ± 0.4 |  | 
5 | COc1cc2c(c(OC)c1OC)-c1ccc(SC)c(=O)cc1[C@@H](NC(=O)C(F)(F)C(F)(F)C(F)(F)F)CC2 [Compound IV, N-deacetyl-N-heptafluorobutyroyl-thiocolchicine] | 9.7 | 3.2 ± 0.2 | 31 ± 1.9 |  | 
6 | CC(=O)O[C@H]1C(=O)[C@@]2(C)[C@H]([C@H](OC(=O)c3ccccc3)[C@]3(O)C[C@H](OC(=O)[C@H](O)[C@@H](NC(=O)c4ccccc4)c4ccccc4)C(C)=C1C3(C)C)[C@]1(OC(C)=O)CO[C@@H]1C[C@@H]2O [Taxol, reference compound] | 59.01 | 6.1 ± 0.3 | 360 ± 7.8 |  | 
